Several values for one entry are separate records, joined by “and”; a condition that tells them apart may be missing. Identical values can stand only once. Inconclusive results and toxic doses are left out. Rule as the data show it: active = T/C of 150% or more; inactive = T/C below 125%.
Tested on: L1210 leukemia ip in BDF1 mice, survival T/C
Assay: NCI In Vivo Anticancer Drug Screen. Data for tumor model L1210 Leukemia (intraperitoneal) in B6D2F1 (BDF1) mice
Conditions: endpoint: mean survival time, higher = longer survival
Summary of the method: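 Antitumor effect is assessed in tumor-bearing animals. Survival in the compound arm is compared with a vehicle-dosed control arm and expressed as their quotient.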

[1] = dose: 12.5 mg/kg/injection, schedule: Q01DX009 (ip), vehicle: saline
[2] = dose: 25.0 mg/kg/injection, schedule: Q01DX009 (ip), vehicle: saline
[3] = dose: 25.0 mg/kg/injection, schedule: Q04DX003 (ip), vehicle: saline
[4] = dose: 50.0 mg/kg/injection, schedule: Q01DX009 (ip), vehicle: saline
[5] = dose: 100.0 mg/kg/injection, schedule: Q01DX001 (ip), vehicle: Klucel (hydroxypropylcellulose) (HPC)
[6] = dose: 200.0 mg/kg/injection, schedule: Q01DX001 (ip), vehicle: Klucel (hydroxypropylcellulose) (HPC)
[7] = dose: 100.0 mg/kg/injection, schedule: Q01DX009 (ip), vehicle: saline
[8] = dose: 200.0 mg/kg/injection, schedule: Q01DX009 (ip), vehicle: saline
[9] = dose: 400.0 mg/kg/injection, schedule: Q01DX009 (ip), vehicle: saline
[10] = dose: 400.0 mg/kg/injection, schedule: Q01DX001 (ip), vehicle: Klucel (hydroxypropylcellulose) (HPC)
[11] = dose: 50.0 mg/kg/injection, schedule: Q01DX001 (ip), vehicle: Klucel (hydroxypropylcellulose) (HPC)
[12] = dose: 100.0 mg/kg/injection, schedule: Q01DX009 (ip), vehicle: Klucel (hydroxypropylcellulose) (HPC)
[13] = dose: 100.0 mg/kg/injection, schedule: Q04DX003 (ip), vehicle: Klucel (hydroxypropylcellulose) (HPC)
[14] = dose: 200.0 mg/kg/injection, schedule: Q01DX009 (ip), vehicle: Klucel (hydroxypropylcellulose) (HPC)
[15] = dose: 200.0 mg/kg/injection, schedule: Q04DX003 (ip), vehicle: Klucel (hydroxypropylcellulose) (HPC)
[16] = dose: 400.0 mg/kg/injection, schedule: Q01DX009 (ip), vehicle: Klucel (hydroxypropylcellulose) (HPC)
[17] = dose: 100.0 mg/kg/injection, schedule: Q01DX001 (ip), vehicle: carboxymethylcellulose (CMC)
[18] = dose: 200.0 mg/kg/injection, schedule: Q01DX001 (ip), vehicle: carboxymethylcellulose (CMC)
[19] = dose: 400.0 mg/kg/injection, schedule: Q01DX001 (ip), vehicle: carboxymethylcellulose (CMC)
[20] = dose: 100.0 mg/kg/injection, schedule: Q01DX001 (ip), vehicle: saline
[21] = dose: 200.0 mg/kg/injection, schedule: Q01DX001 (ip), vehicle: saline
[22] = dose: 6.25 mg/kg/injection, schedule: Q04DX003 (ip), vehicle: saline
[23] = dose: 12.5 mg/kg/injection, schedule: Q04DX003 (ip), vehicle: saline
[24] = dose: 100.0 mg/kg/injection, schedule: Q04DX002 (ip), vehicle: Klucel (hydroxypropylcellulose) (HPC)
[25] = dose: 200.0 mg/kg/injection, schedule: Q04DX002 (ip), vehicle: Klucel (hydroxypropylcellulose) (HPC)
[26] = dose: 400.0 mg/kg/injection, schedule: Q04DX002 (ip), vehicle: Klucel (hydroxypropylcellulose) (HPC)
[27] = dose: 50.0 mg/kg/injection, schedule: Q01DX001 (ip), vehicle: carboxymethylcellulose (CMC)

Measured: T/C

CN(C)CCCCc1cn(-c2ccccc2)c2ccccc12
inactive: [1] 100 % of control | [2] 93 % of control | [3] 102 % of control | dose: 30.0 mg/kg/injection, schedule: Q01DX015 (ip), vehicle: saline 86 % of control | [4] 107 % of control | dose: 50.0 mg/kg/injection, schedule: Q04DX003 (ip), vehicle: saline 103 % of control

Cc1ccc(S(=O)(=O)OCC(O)C2OCOC3COCOC32)cc1 (stereo not drawn)
inactive: [5] 97 % of control | [6] 101 % of control

C#CC[N+]12CN3CN(CN(C3)C1)C2
inactive: dose: 100.0 mg/kg/injection, schedule: Q04DX003 (ip), vehicle: saline 101 % of control | dose: 200.0 mg/kg/injection, schedule: Q04DX003 (ip), vehicle: saline 98 % of control | dose: 400.0 mg/kg/injection, schedule: Q04DX003 (ip), vehicle: saline 102 % of control

C1CCC2C(C1)CCC1OC12 (stereo not drawn)
inactive: [7] 112 % of control | [8] 102 % of control | [9] 107 % of control

CC1(O)C(=O)C=Cc2ccccc21 (stereo not drawn)
inactive: [5] 93 % of control | [6] 102 % of control | [10] 96 % of control

CCCC[N+](C)(CCCC)CCCC
inactive: dose: 75.0 mg/kg/injection, schedule: Q01DX001 (ip), vehicle: saline 101 % of control

CC1=NN=S(CC2=C(C(=O)O)N3C(=O)C(NC(=O)C[n+]4cc(=O)o[nH]4)C3SC2)S1 (stereo not drawn)
inactive: dose: 50.0 mg/kg/injection, schedule: Q04DX002 (ip), vehicle: saline 118 % of control | dose: 100.0 mg/kg/injection, schedule: Q04DX002 (ip), vehicle: saline 103 % of control | dose: 200.0 mg/kg/injection, schedule: Q04DX002 (ip), vehicle: saline 114 % of control

CC1(C)N=C(N)N=C(N)N1c1ccc(CCNC(=O)c2ccc(S(=O)(=O)F)cc2)cc1
inactive: dose: 25.0 mg/kg/injection, schedule: Q01DX001 (ip), vehicle: Klucel (hydroxypropylcellulose) (HPC) 90 % of control | [11] 96 % of control | [5] 90 % of control

Cc1ccc(S(=O)(=O)N2CC3CC2CN3Cc2ccccc2)cc1 (stereo not drawn)
inactive: [12] 97 % of control | [13] 98 % of control | [14] 97 % of control | [15] 101 % of control | [16] 92 % of control | dose: 400.0 mg/kg/injection, schedule: Q04DX003 (ip), vehicle: Klucel (hydroxypropylcellulose) (HPC) 106 % of control

NS(=O)(=O)c1cc2c(cc1Cl)NC(CSCC(F)(F)F)NS2(=O)=O (stereo not drawn)
inactive: [17] 113 % of control | [18] 108 % of control | [19] 97 % of control

O=C1c2cccc3c([N+](=O)[O-])ccc(c23)C(=O)N1CC1CCCO1 (stereo not drawn)
inactive: [12] 108 % of control | [14] 110 % of control

CC1=C2[C@H]3OC(=O)[C@@H](C)[C@@H]3CC[C@@]2(C)C=CC1=O
inactive: [20] 101 % of control | [13] 97 % of control | [21] 101 % of control | [15] 103 % of control

C[N+](C)(C)CCOC(=O)c1ccc(CBr)c(CBr)c1
inactive: dose: 6.25 mg/kg/injection, schedule: Q01DX009 (ip), vehicle: saline 97 % of control | [22] 96 % of control | [1] 99 % of control | [23] 96 % of control | [2] 104 % of control | [3] 98 % of control

O=C(O)c1ccc(NC(C(=O)c2ccccc2)c2ccccc2)cc1 (stereo not drawn)
inactive: [11] 96 % of control | [5] 107 % of control | [6] 94 % of control

CCOC(=O)CCc1ccc(N=NN(C)C(C)CC)cc1 (stereo not drawn)
inactive: [17] 111 % of control | [18] 105 % of control | [19] 111 % of control

CCN(CC)CCN(CC)C(=S)Nc1ccccc1
inactive: dose: 12.5 mg/kg/injection, schedule: Q01DX009 (ip), vehicle: Klucel (hydroxypropylcellulose) (HPC) 117 % of control | dose: 25.0 mg/kg/injection, schedule: Q01DX009 (ip), vehicle: Klucel (hydroxypropylcellulose) (HPC) 109 % of control | dose: 50.0 mg/kg/injection, schedule: Q01DX009 (ip), vehicle: Klucel (hydroxypropylcellulose) (HPC) 102 % of control

C1=Nc2ccccc2/C1=C/c1cccc2ccccc12
inactive: dose: 100.0 mg/kg/injection, schedule: Q04DX002 (ip), vehicle: saline with Tween-80 98 % of control | dose: 200.0 mg/kg/injection, schedule: Q04DX002 (ip), vehicle: saline with Tween-80 101 % of control

O=C1CC2CCCC(C1)S2
inactive: dose: 75.0 mg/kg/injection, schedule: Q01DX001 (ip), vehicle: carboxymethylcellulose (CMC) 107 % of control | [24] 86 % of control | dose: 150.0 mg/kg/injection, schedule: Q01DX001 (ip), vehicle: carboxymethylcellulose (CMC) 109 % of control | [25] 100 % of control | dose: 300.0 mg/kg/injection, schedule: Q01DX001 (ip), vehicle: carboxymethylcellulose (CMC) 102 % of control | [26] 86 % of control

Cc1n[nH]c(C)c1C(C)C
inactive: dose: 50.0 mg/kg/injection, schedule: Q01DX001 (ip), vehicle: saline 103 % of control | [20] 101 % of control | [21] 86 % of control

O=S1(=O)CC(c2ccccc2)=NN=C(c2ccccc2)C1
inactive: [20] 92 % of control | [21] 86 % of control | dose: 400.0 mg/kg/injection, schedule: Q01DX001 (ip), vehicle: saline 92 % of control

c1ccc(OCC2CO2)cc1 (stereo not drawn)
inactive: [27] 100 % of control | [17] 100 % of control | dose: 100.0 mg/kg/injection, schedule: Q01DX009 (ip), vehicle: saline with Tween-80 96 % of control | dose: 100.0 mg/kg/injection, schedule: Q04DX003 (ip), vehicle: saline with Tween-80 95 % of control | [18] 105 % of control | dose: 200.0 mg/kg/injection, schedule: Q01DX009 (ip), vehicle: saline with Tween-80 93 % of control | dose: 200.0 mg/kg/injection, schedule: Q04DX003 (ip), vehicle: saline with Tween-80 97 % of control | [19] 97 % of control | dose: 400.0 mg/kg/injection, schedule: Q01DX009 (ip), vehicle: saline with Tween-80 98 % of control | dose: 400.0 mg/kg/injection, schedule: Q04DX003 (ip), vehicle: saline with Tween-80 97 % of control

COC1OC(OC)[CH]([Hg][Cl])C1OC (stereo not drawn)
inactive: dose: 3.13 mg/kg/injection, schedule: Q01DX009 (ip), vehicle: saline with Tween-80 94 % of control | dose: 6.25 mg/kg/injection, schedule: Q01DX009 (ip), vehicle: saline with Tween-80 92 % of control | [22] 100 % of control | dose: 12.5 mg/kg/injection, schedule: Q01DX009 (ip), vehicle: saline with Tween-80 91 % of control | [23] 100 % of control

COC(=O)NNC(=O)OC
inactive: [27] 89 % of control | [17] 94 % of control | [12] 97 % of control | [18] 97 % of control | [14] 100 % of control | [19] 103 % of control | [16] 103 % of control

COc1ccc(/C=N\NC(=O)CCCCC(=O)N/N=C\c2ccc(OC)cc2)cc1
inactive: [5] 106 % of control | [6] 98 % of control | [10] 91 % of control

CCN(CC)C(=O)c1ccncc1
inactive: [4] 101 % of control | [7] 106 % of control and 88 % of control | [8] 97 % of control | [9] 111 % of control

CN(C)CC/C=C1\c2ccccc2CCSc2ccccc21
inactive: dose: 25.0 mg/kg/injection, schedule: Q04DX003 (ip), vehicle: Klucel (hydroxypropylcellulose) (HPC) 100 % of control | dose: 50.0 mg/kg/injection, schedule: Q04DX003 (ip), vehicle: Klucel (hydroxypropylcellulose) (HPC) 100 % of control | [13] 98 % of control

CCN(CC)Cc1cc(Nc2c3ccc(Cl)cc3nc3ccc(OC)cc23)ccc1O
inactive: [24] 105 % of control | [25] 112 % of control | [26] 108 % of control
